Measured values as given in patent publication US7432260B2, “Pyrimidine compounds” (Cyclacel Limted, priority 2002, dated 2008).

How the values were obtained:
A549 = assay: 72-h MTT cytotoxicity assay A549; format: cell-based; details: Homo sapiens, A549, 72 h, Table 4
Procedure: (§1) MTT cytotoxicity assay. […] Standard 72-h MTT (thiazolyl blue; 3-[4,5-dimethylthiazol-2-yl]-2,5-diphenyltetrazolium bromide) assays were performed (Haselsberger, K.; Peterson, D. C.; Thomas, D. G.; Darling, J. L. Anti Cancer Drugs 1996, 7, 331-8; Loveland, B. E.; Johns, T. G.; Mackay, I. R.; Vaillant, F.; Wang, Z. X.; Hertzog, P. J. Biochemistry International 1992, 27, 501-10). In short: cells were seeded into 96-well plates according to doubling time and incubated overnight at 37° C. Test compounds were made up in DMSO and a 1/3 dilution series prepared in 100 μL cell media, added to cells (in triplicates) and incubated for 72 ho at 37° C. MTT was made up as a stock of 5 mg/mL in cell media and filter-sterilised. Media was removed from cells followed by a wash with 200 μL PBS.
(§2) MTT solution was then added at 20 μL per well and incubated in the dark at 37° C. for 4 h. MTT solution was removed and cells again washed with 200 μL PBS. MTT dye was solubilised with 200 μL per well of DMSO with agitation.

Saos-2 = assay: 72-h MTT cytotoxicity assay Saos-2; format: cell-based; details: Homo sapiens, SAOS-2, 72 h, Table 4
Procedure: as §1, §2

CDK2/cyclin E = CDK2/cyclin E (Homo sapiens, UniProt P24941); assay: Kinase assay CDK2/cyclin E; format: biochemical; details: Table 2; read-out: Kinase Inhibition IC50 CDK2 cyclin E
Procedure: (§3) Kinase assays. […] This was achieved by measurement of incorporation of radioactive phosphate from ATP into appropriate polypeptide substrates. Recombinant protein kinases and kinase complexes were produced or obtained commercially. Assays were performed using 96-well plates and appropriate assay buffers (typically 25 mM β-glycerophosphate, 20 mM MOPS, 5 mM EGTA, 1 mM DTT, 1 mM […], pH 7.4), into which were added 2-4 μg of active enzyme with appropriate substrates. The reactions were initiated by addition of Mg/ATP mix (15 mM MgCl2+100 μM ATP with 30-50 kBq per well of [γ-^32P]-ATP) and mixtures incubated as required at 30° C. Reactions were stopped on ice, followed by filtration through p81 filterplates or GF/C filterplates (Whatman Polyfiltronics, Kent, UK). After washing 3 times with 75 mM aq orthophosphoric acid, plates were dried, scintillant added and incorporated radioactivity measured in a scintillation counter (TopCount, Packard Instruments, Pangbourne, Berks, UK). Compounds for kinase assay were made-up as 10 mM stocks in DMSO and diluted into 10% DMSO inrassay buffer.

CDK4/cyclin D1 = CDK4/cyclin D1 (Homo sapiens, UniProt P11802); assay: Kinase assay CDK4/cyclin D1; format: biochemical; details: Table 2; read-out: Kinase Inhibition IC50 CDK4 cyclin D1
Sequence of CDK4/cyclin D1 (P11802 whole entry): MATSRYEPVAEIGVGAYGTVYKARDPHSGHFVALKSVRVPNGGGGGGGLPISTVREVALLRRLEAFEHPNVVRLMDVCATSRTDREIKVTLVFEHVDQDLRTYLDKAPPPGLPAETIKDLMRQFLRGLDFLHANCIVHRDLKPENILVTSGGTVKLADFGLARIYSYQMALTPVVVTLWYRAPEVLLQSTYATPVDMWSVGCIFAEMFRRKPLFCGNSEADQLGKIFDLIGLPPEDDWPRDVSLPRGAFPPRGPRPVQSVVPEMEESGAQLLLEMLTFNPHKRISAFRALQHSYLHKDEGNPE
Sequence of CDK4/cyclin D1 (P24385 whole entry partner): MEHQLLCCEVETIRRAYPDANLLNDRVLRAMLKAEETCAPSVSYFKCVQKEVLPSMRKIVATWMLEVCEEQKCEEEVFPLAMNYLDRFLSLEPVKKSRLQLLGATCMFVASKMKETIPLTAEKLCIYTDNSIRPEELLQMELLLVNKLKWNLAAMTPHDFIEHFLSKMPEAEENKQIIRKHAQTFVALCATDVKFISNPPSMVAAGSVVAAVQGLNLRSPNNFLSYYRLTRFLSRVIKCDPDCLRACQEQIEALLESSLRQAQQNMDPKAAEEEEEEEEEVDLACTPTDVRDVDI
Procedure: as §3

CDK9/cyclin T1 = CDK9/cyclin T1 (Homo sapiens, UniProt P50750); assay: CDK9 assay; format: biochemical; details: Table 2; read-out: Kinase Inhibition IC50 CDK9 cyclin T1
Sequence of CDK9/cyclin T1 (P50750 whole entry): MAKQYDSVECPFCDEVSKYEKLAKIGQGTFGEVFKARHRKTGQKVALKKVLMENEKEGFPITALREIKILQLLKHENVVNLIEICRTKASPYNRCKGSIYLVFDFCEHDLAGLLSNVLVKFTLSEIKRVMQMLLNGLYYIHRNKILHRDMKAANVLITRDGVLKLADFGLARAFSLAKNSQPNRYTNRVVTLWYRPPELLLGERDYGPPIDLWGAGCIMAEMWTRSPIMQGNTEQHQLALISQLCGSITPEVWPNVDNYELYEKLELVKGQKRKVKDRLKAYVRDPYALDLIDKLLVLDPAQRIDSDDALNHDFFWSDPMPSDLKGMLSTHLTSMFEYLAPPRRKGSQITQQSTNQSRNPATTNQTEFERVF
Sequence of CDK9/cyclin T1 (O60563 whole entry partner): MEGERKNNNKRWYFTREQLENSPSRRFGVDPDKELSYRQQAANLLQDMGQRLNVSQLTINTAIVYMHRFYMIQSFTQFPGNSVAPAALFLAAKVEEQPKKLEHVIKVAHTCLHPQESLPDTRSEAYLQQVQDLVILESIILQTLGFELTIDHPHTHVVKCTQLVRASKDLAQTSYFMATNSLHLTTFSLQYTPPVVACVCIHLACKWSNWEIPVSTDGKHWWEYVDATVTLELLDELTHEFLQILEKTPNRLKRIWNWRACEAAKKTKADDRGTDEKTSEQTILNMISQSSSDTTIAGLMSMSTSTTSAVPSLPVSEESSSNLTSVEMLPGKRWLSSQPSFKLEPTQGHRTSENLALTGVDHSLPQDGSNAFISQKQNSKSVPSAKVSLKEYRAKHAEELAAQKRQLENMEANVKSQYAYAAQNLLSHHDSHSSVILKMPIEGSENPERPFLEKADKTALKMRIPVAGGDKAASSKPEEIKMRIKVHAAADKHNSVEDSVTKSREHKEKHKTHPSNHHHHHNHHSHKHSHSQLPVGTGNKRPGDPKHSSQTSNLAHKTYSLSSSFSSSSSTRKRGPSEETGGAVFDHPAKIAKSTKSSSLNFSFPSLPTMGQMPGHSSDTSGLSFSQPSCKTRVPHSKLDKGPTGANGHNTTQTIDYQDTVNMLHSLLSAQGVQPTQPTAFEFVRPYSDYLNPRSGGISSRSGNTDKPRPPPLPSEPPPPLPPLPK
Procedure: as §3
(§4) CDK 7 and 9 assays. CTD peptide substrate (biotinyl-Ahx-(Tyr-Ser-Pro-Thr-Ser-Pro-Ser)4-NH2; 1-2 mg/mL) and recombinant human CDK7/cyclin H, CDK9/cyclin T1, or CDK9/cyclin K (0.5-2 μg) were incubated for 45 min at 30° C. in the presence of varying amounts of test compound in 20 mM MOPS pH 7.2, 25 mM β-glycerophosphate, 5 mM EGTA, 1 mM DTT, 1 mM sodium vanadate, 15 mM MgCl2, and 100 μM ATP (containing a trace amount of ^32PγATP) in a total volume of 25 μL in a 96-well microtiter plate. The reaction was stopped by placing the plate on ice for 2 min. Avidin (50 μg) was added to each well, and the plate was incubated at room temp for 30 min. The samples were transferred to a 96-well P81 filter plate, and washed (4×200 μL per well) with 75 mM phosphoric acid. Microscint 40 scintillation liquid (50 μL) was added to each well, and the amount of ^32P incorporation for each sample was measured using a Packard Topcount microplate scintillation counter.

HT29 = assay: 72-h MTT cytotoxicity assay HT29; format: cell-based; details: Homo sapiens, HT-29, 72 h, Table 4
Procedure: as §1, §2

GSK-3β = GSK-3β (Homo sapiens, UniProt P49841); assay: Kinase assay GSK-3β; format: biochemical; details: Table 2; read-out: Kinase Inhibition IC50 GSK-3β
Sequence of GSK-3β (P49841 whole entry): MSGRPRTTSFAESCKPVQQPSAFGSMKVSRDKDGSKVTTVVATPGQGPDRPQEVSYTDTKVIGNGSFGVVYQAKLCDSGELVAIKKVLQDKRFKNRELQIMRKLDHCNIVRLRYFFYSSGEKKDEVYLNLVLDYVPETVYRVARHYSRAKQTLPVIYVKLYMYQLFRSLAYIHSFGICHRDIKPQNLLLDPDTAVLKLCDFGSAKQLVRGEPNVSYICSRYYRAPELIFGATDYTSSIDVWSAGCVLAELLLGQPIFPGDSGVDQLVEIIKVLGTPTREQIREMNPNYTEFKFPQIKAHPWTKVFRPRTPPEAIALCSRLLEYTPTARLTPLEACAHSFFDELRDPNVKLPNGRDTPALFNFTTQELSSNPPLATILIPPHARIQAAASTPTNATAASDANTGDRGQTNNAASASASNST
Procedure: as §3

CDK1/cyclin B = CDK1/cyclin B (Homo sapiens, UniProt P06493); assay: Kinase assay CDK1/cyclin B; format: biochemical; details: Table 2; read-out: Kinase Inhibition IC50 CDK1 cyclin B
Sequence of CDK1/cyclin B (P06493 whole entry): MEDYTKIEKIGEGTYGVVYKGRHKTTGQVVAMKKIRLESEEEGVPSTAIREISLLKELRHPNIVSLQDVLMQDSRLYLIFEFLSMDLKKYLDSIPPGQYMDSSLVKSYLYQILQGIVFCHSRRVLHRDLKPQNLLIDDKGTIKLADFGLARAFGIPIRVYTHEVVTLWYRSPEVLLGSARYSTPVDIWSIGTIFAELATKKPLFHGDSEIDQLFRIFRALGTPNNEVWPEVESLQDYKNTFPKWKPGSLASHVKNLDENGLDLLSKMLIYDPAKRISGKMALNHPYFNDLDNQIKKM
Sequence of CDK1/cyclin B (P14635 whole entry partner): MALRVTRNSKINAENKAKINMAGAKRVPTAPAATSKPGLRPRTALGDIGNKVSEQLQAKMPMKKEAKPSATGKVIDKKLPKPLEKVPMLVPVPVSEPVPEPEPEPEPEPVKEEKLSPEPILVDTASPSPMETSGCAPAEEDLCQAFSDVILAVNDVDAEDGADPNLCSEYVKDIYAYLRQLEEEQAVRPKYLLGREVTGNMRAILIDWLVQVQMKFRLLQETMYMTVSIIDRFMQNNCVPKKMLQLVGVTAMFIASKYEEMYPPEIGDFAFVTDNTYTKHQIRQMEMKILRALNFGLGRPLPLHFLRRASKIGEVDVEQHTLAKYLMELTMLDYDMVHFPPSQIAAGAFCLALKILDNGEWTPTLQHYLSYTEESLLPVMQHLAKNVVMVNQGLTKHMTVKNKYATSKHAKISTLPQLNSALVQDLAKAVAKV
Procedure: as §3

CDK2/cyclin A = CDK2/cyclin A (Homo sapiens, UniProt P24941); assay: Kinase assay CDK2/cyclin A; format: biochemical; details: Table 2; read-out: Kinase Inhibition IC50 CDK2 cyclin A
Procedure: as §3

CDK7/cyclin H = CDK7/cyclin H (Homo sapiens, UniProt P50613); assay: CDK7 assay; format: biochemical; details: Table 2; read-out: Kinase Inhibition IC50 CDK7 cyclin H
Sequence of CDK7/cyclin H (P50613 whole entry): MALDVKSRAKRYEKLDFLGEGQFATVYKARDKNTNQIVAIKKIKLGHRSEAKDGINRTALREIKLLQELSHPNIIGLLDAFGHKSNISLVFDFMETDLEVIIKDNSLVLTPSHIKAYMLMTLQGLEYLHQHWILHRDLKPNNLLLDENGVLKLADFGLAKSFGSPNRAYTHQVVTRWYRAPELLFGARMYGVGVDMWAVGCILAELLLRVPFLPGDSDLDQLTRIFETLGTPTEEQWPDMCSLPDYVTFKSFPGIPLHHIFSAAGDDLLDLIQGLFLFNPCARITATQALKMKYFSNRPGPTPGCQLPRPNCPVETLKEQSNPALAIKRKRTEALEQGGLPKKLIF
Procedure: as §3, §4

Row | SMILES | IC50 (CDK2/cyclin E) [nM] | IC50 (CDK4/cyclin D1) [nM] | IC50 (CDK9/cyclin T1) [nM] | IC50 (GSK-3β) [nM] | IC50 (CDK1/cyclin B) [nM] | IC50 (CDK2/cyclin A) [nM] | IC50 (CDK7/cyclin H) [nM] | IC50 (A549) [nM] | IC50 (Saos-2) [nM] | IC50 (HT29) [nM]
1 | Cc1nc(N)sc1-c1ccnc(Nc2ccc(S(C)(=O)=O)cc2)n1 [Compound 76, [4-(2-Amino-4-methyl-thiazol-5-yl)-pyrimidin-2-yl]-(4-methanesulfonyl-phenyl)-amine] | 150 | 3200 | – | 5400 | 1800 | 140 | 11000 | 5800 | 1300 | 1800
2 | Cc1nc(C)c(-c2ccnc(Nc3ccc(NC(=O)Cn4ccnc4)cc3)n2)s1 [Compound 54, N-{4-[4-(2,4-Dimethyl-thiazol-5-yl)-pyrimidin-2-ylamino]-phenyl}-2-imidazol-1-yl-acetamide] | 98 | 32 | 110 | 19000 | 1300 | 57000 | 2100 | 2900 | 1900 | 2700
3 | CNc1nc(C)c(-c2ccnc(Nc3ccc(OCCOC)c([N+](=O)[O-])c3)n2)s1 [Compound 77, [4-(2-Methoxy-ethoxy)-3-nitro-phenyl]-[4-(4-methyl-2-methylamino-thiazol-5-yl)-pyrimidin-2-yl]-amine] | 150 | 3400 | 260 | 6100 | 72000 | 1000 | 1000 | 310 | 350 | 210
4 | Cc1nc(N2CCOCC2)sc1-c1ccnc(Nc2cccc([N+](=O)[O-])c2)n1 [Compound 71, [4-(4-Methyl-2-morpholin-4-yl-thiazol-5-yl)-pyrimidin-2-yl]-(3-nitro-phenyl)-amine] | 220 | – | 4200 | 2400 | 330 | 6 | 2400 | 80000 | 10000 | 71000
5 | CNc1nc(C)c(-c2ccnc(Nc3ccc(N4CCN(C(C)=O)CC4)cc3)n2)s1 [Compound 61, 1-(4-{4-[4-(4-Methyl-2-methylamino-thiazol-5-yl)-pyrimidin-2-ylamino]-phenyl}-piperazin-1-yl)-ethanone] | – | 42 | 1500 | 6800 | 2500 | – | 2300 | 720 | 1000 | 530
6 | Cc1nc(N2CCOCC2)sc1-c1ccnc(Nc2cccc(O)c2)n1 [Compound 55, 3-[4-(4-Methyl-2-morpholin-4-yl-thiazol-5-yl)-pyrimidin-2-ylamino]-phenol] | 79 | 1000 | 2100 | 67000 | 2400 | 61000 | 2200 | 2300 | 1400 | 5100
7 | CNc1nc(C)c(-c2ccnc(Nc3ccc(Cl)c(CO)c3)n2)s1 [Compound 73, {2-Chloro-5-[4-(4-methyl-2-methylamino-thiazo1-5-yl)-pyrimidin-2-ylamino]-phenyl}-methanol] | 1000 | 230 | 550 | 5200 | 1700 | 1300 | 2000 | 1500 | 2900 | 5500
8 | CNc1nc(C)c(-c2ccnc(Nc3cccc(CNS(=O)(=O)C(F)(F)F)c3)n2)s1 [Compound 82, C,C,C-Trifluoro-N-{3-[4-(4-methyl-2-methylamino-thiazol-5-yl)-pyrimidin-2-ylamino]-benzyl}-methanesulfonamide] | 14 | 2300 | – | 1200 | 2700 | 1300 | 4000 | – | – | –

Now those with a lower IC50 (GSK-3β), led by results:

Row | IC50 (CDK2/cyclin E) [nM] | IC50 (CDK4/cyclin D1) [nM] | IC50 (CDK9/cyclin T1) [nM] | IC50 (GSK-3β) [nM] | IC50 (CDK1/cyclin B) [nM] | IC50 (CDK2/cyclin A) [nM] | IC50 (CDK7/cyclin H) [nM] | SMILES | IC50 (A549) [nM] | IC50 (Saos-2) [nM] | IC50 (HT29) [nM]
9 | 5 | 1100 | 1.4 | 210 | – | – | – | Cc1nc(NS(C)(=O)=O)sc1-c1ccnc(Nc2cccc([N+](=O)[O-])c2)n1 [Compound 32, N-{4-Methyl-5-[2-(3-nitro-phenylamino)-pyrimidin-4-yl]-thiazol-2-yl}-methanesulfonamide] | 100 | 160 | 170
10 | 640 | 1300 | – | 470 | 15000 | 1200 | 2800 | Cc1c(-c2ccnc(Nc3ccc(N4CCOCC4)cc3)n2)sc(=O)n1C [Compound 92, 3,4-Dimethyl-5-[2-(4-morpholin-4-yl-phenylamino)-pyrimidin-4-yl]-3H-thiazol-2-one] | – | – | –
11 | 1400 | 7000 | – | 730 | – | – | – | Cc1nc(NC(=O)CCl)sc1-c1ccnc(Nc2ccc(Cl)cc2)n1 [Compound 34, 2-Chloro-N-{5-[2-(4-chloro-phenylamino)-pyrimidin-4-yl]-4-methyl-thiazol-2-yl}-acetamide] | 3900 | 3300 | 3200
12 | 76 | 300 | – | 300 | 140 | 50 | 430 | Cc1nc(N)sc1-c1ccnc(Nc2cccc(S(C)(=O)=O)c2)n1 [Compound 84, [4-(2-Amino-4-methyl-thiazol-5-yl)-pyrimidin-2-yl]-(3-methanesulfonyl-phenyl)-amine] | – | – | –
13 | 25 | 670 | – | 1000 | 480 | 150 | 370 | CNc1nc(C)c(-c2ccnc(Nc3cccc(CNS(C)(=O)=O)c3)n2)s1 [Compound 83, N-{3-[4-(4-Methyl-2-methylamino-thiazol-5-yl)-pyrimidin-2-ylamino]-benzyl}-methanesulfonamide] | – | – | –
14 | 65 | 42 | – | 820 | 150 | 61 | 480 | CCNc1nc(C)c(-c2ccnc(Nc3cccc(CO)c3)n2)s1 [Compound 68, {3-[4-(2-Ethylamino-4-methyl-thiazol-5-yl)-pyrimidin-2-ylamino]-phenyl}-methanol] | – | – | –
15 | 470 | 1100 | – | 560 | 860 | 490 | 1200 | Cc1nc(NC(=O)CNCCOCCO)sc1-c1ccnc(Nc2ccc(N(C)C)cc2)n1 [Compound 29, N-{5-[2-(4-Dimethylamino-phenylamino)-pyrimidin-4-yl]-4-methyl-thiazol-2-yl}-2-[2-(2-hydroxy-ethoxy)-ethylamino]-acetamide] | 690 | 720 | 2600
16 | 840 | 510 | 300 | 430 | 4400 | 1100 | 360 | Cc1c(-c2ccnc(Nc3ccc(N4CCN(C)CC4)cc3)n2)sc(=O)n1C [Compound 93, 3,4-Dimethyl-5-{2-[4-(4-methyl-piperazin-1-yl)-phenylamino]-pyrimidin-4-yl}-3H-thiazol-2-one] | – | – | –
